These results are taken from article PMC5926067 (Japanese Journal of Cancer Research : Gann, 1999).

SMILES strings stand for the structures.

Type in all cases: biochemical
One test addresses T1, interstitial collagenase (Homo sapiens, UniProt P03956).
T1 sequence (P03956 100-469): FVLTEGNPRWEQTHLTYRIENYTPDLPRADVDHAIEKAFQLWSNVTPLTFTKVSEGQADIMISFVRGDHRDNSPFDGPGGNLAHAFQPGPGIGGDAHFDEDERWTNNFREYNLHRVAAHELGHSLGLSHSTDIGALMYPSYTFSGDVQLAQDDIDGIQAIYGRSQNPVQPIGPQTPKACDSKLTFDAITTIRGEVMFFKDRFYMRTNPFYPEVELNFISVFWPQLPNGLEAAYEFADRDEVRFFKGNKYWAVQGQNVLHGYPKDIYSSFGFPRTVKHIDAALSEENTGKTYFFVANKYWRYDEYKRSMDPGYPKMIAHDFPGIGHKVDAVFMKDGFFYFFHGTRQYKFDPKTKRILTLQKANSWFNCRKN
Description: fluorescence-labeled collagen degradation assay, partially purified enzyme.

The next test addresses T2, gelatinase A (MMP-2) (Homo sapiens, UniProt P08253).
T2 sequence (P08253 110-660): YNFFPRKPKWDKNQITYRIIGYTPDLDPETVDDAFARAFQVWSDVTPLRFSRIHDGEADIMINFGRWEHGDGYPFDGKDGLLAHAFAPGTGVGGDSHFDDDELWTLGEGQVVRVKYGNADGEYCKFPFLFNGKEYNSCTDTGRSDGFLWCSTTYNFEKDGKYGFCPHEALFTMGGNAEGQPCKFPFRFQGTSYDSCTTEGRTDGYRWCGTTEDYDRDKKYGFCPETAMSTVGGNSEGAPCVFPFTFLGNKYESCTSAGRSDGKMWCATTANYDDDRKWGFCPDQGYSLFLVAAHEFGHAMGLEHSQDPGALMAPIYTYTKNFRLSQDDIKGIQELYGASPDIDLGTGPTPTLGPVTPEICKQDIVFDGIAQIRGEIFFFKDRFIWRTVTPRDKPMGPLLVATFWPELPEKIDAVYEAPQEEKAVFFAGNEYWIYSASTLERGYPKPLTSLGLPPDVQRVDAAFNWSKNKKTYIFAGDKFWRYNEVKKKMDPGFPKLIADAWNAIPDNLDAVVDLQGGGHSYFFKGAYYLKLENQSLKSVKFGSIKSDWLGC
In words: fluorescence-labeled gelatin degradation assay, partially purified enzyme.

The target in another test is stromelysin (Mus musculus, UniProt P28862). In words: fluorescence-labeled casein degradation assay, partially purified enzyme.
Sequence of stromelysin (P28862 100-477): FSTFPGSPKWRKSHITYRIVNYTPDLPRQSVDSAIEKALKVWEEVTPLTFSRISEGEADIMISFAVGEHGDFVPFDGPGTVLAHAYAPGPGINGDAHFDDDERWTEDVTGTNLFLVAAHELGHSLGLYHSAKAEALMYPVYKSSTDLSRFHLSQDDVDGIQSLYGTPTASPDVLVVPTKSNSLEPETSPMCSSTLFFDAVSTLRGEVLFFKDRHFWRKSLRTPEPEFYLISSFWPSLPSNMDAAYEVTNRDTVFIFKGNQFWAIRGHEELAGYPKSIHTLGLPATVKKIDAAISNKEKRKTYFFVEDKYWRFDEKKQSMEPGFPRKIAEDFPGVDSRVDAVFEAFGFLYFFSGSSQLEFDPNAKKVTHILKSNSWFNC
Another test deals with gelatinase B (MMP-9) (Homo sapiens, UniProt P14780). In words: fluorescence-labeled gelatin degradation assay, partially purified enzyme.
Sequence of gelatinase B (MMP-9) (P14780 107-707): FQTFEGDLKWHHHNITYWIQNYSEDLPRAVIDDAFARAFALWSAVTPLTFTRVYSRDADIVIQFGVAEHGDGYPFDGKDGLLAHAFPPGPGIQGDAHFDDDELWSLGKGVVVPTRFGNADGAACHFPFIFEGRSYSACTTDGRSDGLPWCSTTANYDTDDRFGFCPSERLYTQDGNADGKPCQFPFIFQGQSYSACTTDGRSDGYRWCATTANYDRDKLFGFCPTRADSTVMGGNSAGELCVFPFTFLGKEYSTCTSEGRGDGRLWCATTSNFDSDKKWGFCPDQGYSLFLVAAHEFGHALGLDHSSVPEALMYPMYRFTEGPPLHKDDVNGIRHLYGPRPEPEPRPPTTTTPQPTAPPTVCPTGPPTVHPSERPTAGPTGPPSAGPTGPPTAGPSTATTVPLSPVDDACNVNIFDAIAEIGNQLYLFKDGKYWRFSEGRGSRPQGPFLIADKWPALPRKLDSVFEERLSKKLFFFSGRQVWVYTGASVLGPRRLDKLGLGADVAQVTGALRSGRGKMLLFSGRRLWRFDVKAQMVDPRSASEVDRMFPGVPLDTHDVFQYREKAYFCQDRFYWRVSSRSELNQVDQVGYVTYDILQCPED

In the case of `CON1C(=O)[C@@H](NC(=O)[C@@H](CC(=O)NO)CC(C)C)Cc2ccccc21` [OPB-3206, 3S-[4-(N-hydroxyamino)-2R-isobutylsuccinyl]amino-1-methoxy-3,4-dihydrocarbostyril], the IC50 at interstitial collagenase is 700 nM; at gelatinase A (MMP-2), 5000 nM; against stromelysin it was 2000 nM; on gelatinase B (MMP-9) it was 500 nM.

Broadly, the IC50 is the concentration that gives 50% inhibition.
